Assay results as given in US12479847B2 (DANA-FARBER CANCER INSTITUTE, INC., priority 2019, dated 2025).
Where two headings read alike, the source gives them in different places.

What was measured:
Assay in all cases: KINOMEscan (ScanMAX) kinase profiling
Format in all cases: binding
panel of 468 kinases [1] = target: T1, panel of 468 kinases (Homo sapiens, UniProt P37173); conditions: TGFBR2; 1 μM; read-out: % control
T1 construct: purchased KINOMEscan (ScanMAX) service

panel of 468 kinases [2] = target: T2, panel of 468 kinases (Homo sapiens, UniProt Q9BYP7); conditions: WNK3; 1 μM; read-out: % control
T2 construct: purchased KINOMEscan (ScanMAX) service
T2 sequence (Q9BYP7 whole entry): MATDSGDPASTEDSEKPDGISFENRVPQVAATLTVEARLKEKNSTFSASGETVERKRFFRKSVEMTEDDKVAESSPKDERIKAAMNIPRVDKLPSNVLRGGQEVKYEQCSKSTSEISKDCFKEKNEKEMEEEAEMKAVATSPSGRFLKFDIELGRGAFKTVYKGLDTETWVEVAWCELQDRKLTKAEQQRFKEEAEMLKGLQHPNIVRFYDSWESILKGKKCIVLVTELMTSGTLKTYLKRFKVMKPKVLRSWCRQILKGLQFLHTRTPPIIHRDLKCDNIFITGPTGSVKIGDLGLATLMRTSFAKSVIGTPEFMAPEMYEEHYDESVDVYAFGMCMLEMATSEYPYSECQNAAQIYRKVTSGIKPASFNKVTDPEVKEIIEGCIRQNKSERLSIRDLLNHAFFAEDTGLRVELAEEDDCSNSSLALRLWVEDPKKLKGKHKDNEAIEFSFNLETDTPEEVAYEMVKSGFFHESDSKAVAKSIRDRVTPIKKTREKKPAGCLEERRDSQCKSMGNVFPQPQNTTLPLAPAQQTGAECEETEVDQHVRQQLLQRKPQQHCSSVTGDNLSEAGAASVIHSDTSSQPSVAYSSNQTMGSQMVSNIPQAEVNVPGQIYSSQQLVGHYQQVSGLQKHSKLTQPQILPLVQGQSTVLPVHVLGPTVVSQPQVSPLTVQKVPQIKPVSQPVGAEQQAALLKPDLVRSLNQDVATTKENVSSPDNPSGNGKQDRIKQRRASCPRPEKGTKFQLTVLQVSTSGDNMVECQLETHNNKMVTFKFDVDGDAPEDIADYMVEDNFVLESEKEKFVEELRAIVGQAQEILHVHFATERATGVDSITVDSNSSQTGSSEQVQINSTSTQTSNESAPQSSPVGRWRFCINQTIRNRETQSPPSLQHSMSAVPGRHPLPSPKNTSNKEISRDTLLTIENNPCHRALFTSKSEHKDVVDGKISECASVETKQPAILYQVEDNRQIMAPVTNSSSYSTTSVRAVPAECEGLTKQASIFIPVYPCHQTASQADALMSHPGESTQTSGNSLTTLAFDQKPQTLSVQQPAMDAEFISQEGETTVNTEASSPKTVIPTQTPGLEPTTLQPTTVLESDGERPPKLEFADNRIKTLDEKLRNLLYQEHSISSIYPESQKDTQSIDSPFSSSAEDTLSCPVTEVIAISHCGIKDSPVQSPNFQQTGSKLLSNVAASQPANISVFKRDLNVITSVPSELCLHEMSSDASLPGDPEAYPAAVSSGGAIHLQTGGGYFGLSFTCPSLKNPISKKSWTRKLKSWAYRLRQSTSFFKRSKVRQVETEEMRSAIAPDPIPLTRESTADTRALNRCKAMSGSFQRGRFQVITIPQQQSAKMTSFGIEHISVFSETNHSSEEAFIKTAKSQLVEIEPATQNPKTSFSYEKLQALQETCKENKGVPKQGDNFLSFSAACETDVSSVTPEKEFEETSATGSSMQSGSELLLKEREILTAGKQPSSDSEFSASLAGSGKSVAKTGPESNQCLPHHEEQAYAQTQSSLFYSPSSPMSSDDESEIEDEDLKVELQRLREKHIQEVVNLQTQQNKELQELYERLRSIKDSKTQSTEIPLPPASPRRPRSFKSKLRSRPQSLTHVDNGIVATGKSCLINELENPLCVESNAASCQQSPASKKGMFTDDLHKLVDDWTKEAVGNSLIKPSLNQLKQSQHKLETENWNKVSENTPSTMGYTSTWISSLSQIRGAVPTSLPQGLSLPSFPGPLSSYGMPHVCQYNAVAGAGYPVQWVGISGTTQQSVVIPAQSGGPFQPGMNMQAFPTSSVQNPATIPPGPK

panel of 468 kinases [3] = target: T3, panel of 468 kinases (Homo sapiens, UniProt Q9UK32); conditions: 1 μM, read-out: % control
T3 construct: purchased KINOMEscan (ScanMAX) service

panel of 468 kinases [4] = target: T4, panel of 468 kinases (Homo sapiens, UniProt Q9H2X6); conditions: HIPK2; 1 μM; read-out: % control
T4 construct: purchased KINOMEscan (ScanMAX) service
T4 sequence (Q9H2X6 whole entry): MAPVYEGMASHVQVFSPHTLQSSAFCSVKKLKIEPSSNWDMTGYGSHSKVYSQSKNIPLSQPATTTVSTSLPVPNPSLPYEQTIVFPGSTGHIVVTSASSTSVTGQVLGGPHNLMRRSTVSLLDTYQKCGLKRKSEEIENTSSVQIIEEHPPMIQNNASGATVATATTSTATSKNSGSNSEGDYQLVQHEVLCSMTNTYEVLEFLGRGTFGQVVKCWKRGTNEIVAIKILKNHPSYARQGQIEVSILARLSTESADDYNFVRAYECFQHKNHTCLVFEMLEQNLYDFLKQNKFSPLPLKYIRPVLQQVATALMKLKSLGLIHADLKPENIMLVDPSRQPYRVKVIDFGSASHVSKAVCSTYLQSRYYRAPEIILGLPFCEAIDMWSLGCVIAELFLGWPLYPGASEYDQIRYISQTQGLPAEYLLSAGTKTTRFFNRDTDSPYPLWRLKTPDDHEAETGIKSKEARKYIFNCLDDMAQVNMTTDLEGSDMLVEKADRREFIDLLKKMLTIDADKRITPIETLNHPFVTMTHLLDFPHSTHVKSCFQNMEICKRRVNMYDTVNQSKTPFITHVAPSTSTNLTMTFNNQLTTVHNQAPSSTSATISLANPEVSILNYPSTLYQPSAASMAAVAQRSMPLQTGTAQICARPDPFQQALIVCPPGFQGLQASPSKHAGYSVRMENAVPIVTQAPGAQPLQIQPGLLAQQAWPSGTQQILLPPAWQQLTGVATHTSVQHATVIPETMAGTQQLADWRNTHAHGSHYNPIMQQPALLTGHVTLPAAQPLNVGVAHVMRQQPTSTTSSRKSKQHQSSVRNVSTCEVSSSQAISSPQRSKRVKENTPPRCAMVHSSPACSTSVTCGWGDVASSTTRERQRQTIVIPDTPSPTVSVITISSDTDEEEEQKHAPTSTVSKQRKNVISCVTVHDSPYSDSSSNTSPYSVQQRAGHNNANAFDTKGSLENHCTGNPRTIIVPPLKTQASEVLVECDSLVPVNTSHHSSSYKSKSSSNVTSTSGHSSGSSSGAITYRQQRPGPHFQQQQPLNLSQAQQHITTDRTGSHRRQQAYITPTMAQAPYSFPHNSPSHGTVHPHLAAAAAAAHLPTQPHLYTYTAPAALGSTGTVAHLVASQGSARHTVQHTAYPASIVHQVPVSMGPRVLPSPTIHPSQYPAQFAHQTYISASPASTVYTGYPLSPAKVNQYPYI

panel of 468 kinases [5] = target: T5, panel of 468 kinases (Homo sapiens, UniProt Q9UPZ9); conditions: ICK; 1 μM; read-out: % control
T5 construct: purchased KINOMEscan (ScanMAX) service
T5 sequence (Q9UPZ9 1-632): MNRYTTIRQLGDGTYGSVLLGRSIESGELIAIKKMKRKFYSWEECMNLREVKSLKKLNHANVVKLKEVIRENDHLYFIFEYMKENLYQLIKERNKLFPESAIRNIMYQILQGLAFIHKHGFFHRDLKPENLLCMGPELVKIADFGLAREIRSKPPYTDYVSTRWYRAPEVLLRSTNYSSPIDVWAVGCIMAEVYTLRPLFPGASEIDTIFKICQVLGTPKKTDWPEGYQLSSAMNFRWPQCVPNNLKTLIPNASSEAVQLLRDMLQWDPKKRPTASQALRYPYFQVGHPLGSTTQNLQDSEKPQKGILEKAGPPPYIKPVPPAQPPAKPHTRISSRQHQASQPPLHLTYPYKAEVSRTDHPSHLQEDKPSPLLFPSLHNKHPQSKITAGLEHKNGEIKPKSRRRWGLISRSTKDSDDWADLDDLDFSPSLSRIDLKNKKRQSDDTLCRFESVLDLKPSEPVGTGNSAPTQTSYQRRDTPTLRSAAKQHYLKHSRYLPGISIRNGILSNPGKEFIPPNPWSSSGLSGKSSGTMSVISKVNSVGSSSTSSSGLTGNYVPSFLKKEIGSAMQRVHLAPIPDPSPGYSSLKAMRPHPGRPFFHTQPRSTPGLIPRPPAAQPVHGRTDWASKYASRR

panel of 468 kinases [6] = target: T6, panel of 468 kinases (Homo sapiens, UniProt Q9BUB5); conditions: MKNK1; 1 μM; read-out: % control
T6 construct: purchased KINOMEscan (ScanMAX) service
T6 sequence (Q9BUB5 whole entry): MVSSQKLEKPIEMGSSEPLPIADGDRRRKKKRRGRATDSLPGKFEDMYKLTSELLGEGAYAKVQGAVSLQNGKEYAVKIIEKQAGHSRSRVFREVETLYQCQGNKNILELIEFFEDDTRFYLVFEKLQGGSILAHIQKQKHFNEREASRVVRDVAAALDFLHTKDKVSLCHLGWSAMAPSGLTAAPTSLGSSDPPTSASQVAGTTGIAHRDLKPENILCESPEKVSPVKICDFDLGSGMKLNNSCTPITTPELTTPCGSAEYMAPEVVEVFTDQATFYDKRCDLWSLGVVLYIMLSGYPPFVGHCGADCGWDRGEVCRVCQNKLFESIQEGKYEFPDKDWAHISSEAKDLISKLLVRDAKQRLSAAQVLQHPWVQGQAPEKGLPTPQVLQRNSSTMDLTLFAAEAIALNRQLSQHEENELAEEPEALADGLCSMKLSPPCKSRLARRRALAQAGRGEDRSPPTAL

panel of 468 kinases [7] = target: T7, panel of 468 kinases (Homo sapiens, UniProt P36888, K663Q); conditions: FLT3(K663Q); 1 μM; read-out: % control
T7 construct: purchased KINOMEscan (ScanMAX) service
T7 sequence (P36888 27-993 K663Q): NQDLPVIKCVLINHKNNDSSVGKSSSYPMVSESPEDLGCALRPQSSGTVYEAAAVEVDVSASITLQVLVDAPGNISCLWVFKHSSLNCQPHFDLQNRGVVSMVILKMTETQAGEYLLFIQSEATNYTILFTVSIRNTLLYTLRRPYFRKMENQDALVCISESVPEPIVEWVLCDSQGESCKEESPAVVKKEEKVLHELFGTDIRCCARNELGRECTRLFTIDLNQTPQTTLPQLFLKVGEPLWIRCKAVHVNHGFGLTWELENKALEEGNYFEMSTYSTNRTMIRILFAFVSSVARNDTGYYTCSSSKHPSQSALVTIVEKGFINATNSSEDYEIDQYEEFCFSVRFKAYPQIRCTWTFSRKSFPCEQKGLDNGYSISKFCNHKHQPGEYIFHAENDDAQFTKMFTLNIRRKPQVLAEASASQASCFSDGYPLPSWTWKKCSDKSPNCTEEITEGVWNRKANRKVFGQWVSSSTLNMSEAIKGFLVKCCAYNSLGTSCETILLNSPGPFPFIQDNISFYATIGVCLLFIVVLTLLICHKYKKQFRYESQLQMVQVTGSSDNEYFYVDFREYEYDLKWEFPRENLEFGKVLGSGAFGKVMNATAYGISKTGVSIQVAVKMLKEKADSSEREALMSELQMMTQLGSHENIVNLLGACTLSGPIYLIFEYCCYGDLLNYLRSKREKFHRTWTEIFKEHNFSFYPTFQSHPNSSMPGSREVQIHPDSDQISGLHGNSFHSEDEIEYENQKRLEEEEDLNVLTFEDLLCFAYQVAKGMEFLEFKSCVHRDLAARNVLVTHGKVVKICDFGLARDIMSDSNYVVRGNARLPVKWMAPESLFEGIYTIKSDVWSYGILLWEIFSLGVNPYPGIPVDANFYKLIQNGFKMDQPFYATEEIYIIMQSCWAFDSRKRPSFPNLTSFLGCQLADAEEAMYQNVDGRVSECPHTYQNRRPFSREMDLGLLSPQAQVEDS

panel of 468 kinases [8] = target: T8, panel of 468 kinases (Homo sapiens, UniProt Q9UIK4); conditions: DAPK2; 1 μM; read-out: % control
T8 construct: purchased KINOMEscan (ScanMAX) service
T8 sequence (Q9UIK4 whole entry): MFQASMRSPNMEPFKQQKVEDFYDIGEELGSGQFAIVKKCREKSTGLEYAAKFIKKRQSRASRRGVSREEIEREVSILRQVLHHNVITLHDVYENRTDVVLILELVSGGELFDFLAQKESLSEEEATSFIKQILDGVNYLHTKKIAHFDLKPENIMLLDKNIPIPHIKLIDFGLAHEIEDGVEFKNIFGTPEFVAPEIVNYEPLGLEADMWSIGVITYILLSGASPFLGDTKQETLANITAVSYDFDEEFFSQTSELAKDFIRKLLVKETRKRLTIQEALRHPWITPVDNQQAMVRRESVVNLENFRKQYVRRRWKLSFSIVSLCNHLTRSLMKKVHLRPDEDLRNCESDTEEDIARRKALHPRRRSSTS

panel of 468 kinases [9] = target: T9, panel of 468 kinases (Homo sapiens, UniProt Q9Y4K4); conditions: MAP4K5; 1 μM; read-out: % control
T9 construct: purchased KINOMEscan (ScanMAX) service

panel of 468 kinases [10] = target: T10, panel of 468 kinases (Homo sapiens, UniProt P00519, F317L); conditions: 1 μM, read-out: % control
T10 construct: purchased KINOMEscan (ScanMAX) service

panel of 468 kinases [11] = target: T11, panel of 468 kinases (Homo sapiens, UniProt P48729); conditions: CSNK1A1; 1 μM; read-out: % control
T11 construct: purchased KINOMEscan (ScanMAX) service

panel of 468 kinases [12] = target: T12, panel of 468 kinases (Homo sapiens, UniProt Q9HAZ1); conditions: CLK4; 1 μM; read-out: % control
T12 construct: purchased KINOMEscan (ScanMAX) service
T12 sequence (Q9HAZ1 whole entry): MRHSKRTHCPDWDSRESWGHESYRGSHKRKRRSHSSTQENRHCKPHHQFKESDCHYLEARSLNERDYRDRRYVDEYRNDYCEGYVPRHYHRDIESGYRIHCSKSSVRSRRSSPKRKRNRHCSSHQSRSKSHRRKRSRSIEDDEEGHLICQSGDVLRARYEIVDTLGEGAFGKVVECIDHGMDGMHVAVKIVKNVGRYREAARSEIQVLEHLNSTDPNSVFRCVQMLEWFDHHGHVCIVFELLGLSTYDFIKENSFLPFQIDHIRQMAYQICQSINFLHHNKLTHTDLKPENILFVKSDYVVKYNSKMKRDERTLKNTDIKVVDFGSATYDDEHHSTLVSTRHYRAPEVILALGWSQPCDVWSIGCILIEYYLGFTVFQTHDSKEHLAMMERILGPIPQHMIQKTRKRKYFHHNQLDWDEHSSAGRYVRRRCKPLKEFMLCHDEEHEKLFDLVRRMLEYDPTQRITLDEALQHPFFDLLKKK

T1 sequence (P37173 23-567): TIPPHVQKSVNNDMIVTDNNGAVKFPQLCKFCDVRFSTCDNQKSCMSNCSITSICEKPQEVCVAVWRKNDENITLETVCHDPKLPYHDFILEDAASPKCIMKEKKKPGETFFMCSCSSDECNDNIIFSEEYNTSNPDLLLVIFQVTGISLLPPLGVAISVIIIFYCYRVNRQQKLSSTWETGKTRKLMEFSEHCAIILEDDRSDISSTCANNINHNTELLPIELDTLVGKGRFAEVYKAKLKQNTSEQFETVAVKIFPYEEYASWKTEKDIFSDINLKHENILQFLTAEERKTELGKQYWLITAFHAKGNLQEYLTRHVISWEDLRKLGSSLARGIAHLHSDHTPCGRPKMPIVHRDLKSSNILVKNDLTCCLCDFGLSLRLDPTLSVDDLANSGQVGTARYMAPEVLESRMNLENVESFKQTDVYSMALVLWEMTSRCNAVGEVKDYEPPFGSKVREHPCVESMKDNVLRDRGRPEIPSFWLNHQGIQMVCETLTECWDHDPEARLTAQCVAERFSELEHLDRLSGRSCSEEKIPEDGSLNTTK

Structure (SMILES)	remaining binding at 1 µM (panel of 468 kinases [1])	remaining binding at 1 µM (panel of 468 kinases [2])	remaining binding at 1 µM (panel of 468 kinases [3]; RSK4(Kin.Dom.1-N-terminal))	remaining binding at 1 µM (panel of 468 kinases [3]; RSK4(Kin.Dom.2-C-terminal))	remaining binding at 1 µM (panel of 468 kinases [4])	remaining binding at 1 µM (panel of 468 kinases [5])	remaining binding at 1 µM (panel of 468 kinases [6])	remaining binding at 1 µM (panel of 468 kinases [7])	remaining binding at 1 µM (panel of 468 kinases [8])	remaining binding at 1 µM (panel of 468 kinases [9])	remaining binding at 1 µM (panel of 468 kinases [10]; ABL1(F317L)-nonphosphorylated)	remaining binding at 1 µM (panel of 468 kinases [10]; ABL1(F317L)-phosphorylated)	remaining binding at 1 µM (panel of 468 kinases [11])	remaining binding at 1 µM (panel of 468 kinases [12])
CNc1nc(Nc2ccc(C(=O)N3CCC(N4CCOCC4)CC3)c3c2OCO3)nc2[nH]cc(Cl)c12 [Compound 75, (7-((5-chloro-4-(methylamino)-7H-pyrrolo[2,3-d]pyrimidin-2-yl)amino)benzo[d][1,3]dioxol-4-yl)(4-morpholinopiperidin-1-yl)methanone]	100%	93%	86%	100%	66%	89%	100%	72%	28%	91%	100%	47%	32%	0.7%
CNc1nc(Nc2ccc(S(=O)(=O)N3CCC(N4CCOCC4)CC3)cc2OC)nc2[nH]cc(Cl)c12 [Compound 12, 5-chloro-N2-(2-methoxy-4-((4-morpholinopiperidin-1-yl)sulfonyl)phenyl)-N4-methyl-7H-pyrrolo[2,3-d]pyrimidine-2,4-diamine]	100%	100%	96%	99%	100%	77%	100%	100%	29%	100%	100%	70%	48%	0.75%
CNc1nc(Nc2ccc(P3(=O)CCN(C4CCOCC4)CC3)cc2OC)nc2[nH]cc(Cl)c12 [Compound 77, 4-(4-((5-chloro-4-(methylamino)-7H-pyrrolo[2,3-d]pyrimidin-2-yl)amino)-3-methoxyphenyl)-1-(tetrahydro-2H-pyran-4-yl)-1,4-azaphosphinane 4-oxide]	100%	98%	92%	77%	95%	85%	100%	99%	10%	100%	100%	54%	27%	1.2%
